According to patent US12150925B2, “Buthionine sulfoximine and a metallodrug for the treatment of cancer, HIV or a rheumatic disease” (Istituto Superiore di Sanità, priority 2017, dated 2024):
“Also recorded” adds a separate entry of the source.

What was measured:
cellular GSH = conditions: 1.5 g/m^2 BSO at 12 hour intervals for six doses, alone or with 15 mg/m^2 melphalan; cited from earlier work
glutathione levels = conditions: Malaker et al. 1994; cited from earlier work
HIV = assay: Theoretical clinical example, HIV patient, with computational simulation of the viral reservoir; set-up: species or system human; conditions: auranofin 6 mg bid six months plus low-dose BSO (three one-week cycles, 0.08 g orally every 6 hours) with ART; baseline 22 copies/10^6 CD4^+ T-cells
From the text: A simulation of the viral load (RNA copies/ml) and viral reservoir (L cells) dynamics in a human model is provided. The trend of productively infected cells (T*) is also shown. The simulation is based on the five differential equations model in Rong and Perelson (2009). The peaks in the viral load correspond to the periods of activation of latently infected CD4+ T-cells. For starting data see Rong and Perelson (2009). Different proliferation rates (p) are shown (day^−1), corresponding to different drug treatments, or absence of any treatment. The bottom three panels depict a scenario without the drugs, with p=1.4 day^−1. The effects of BSO in combination with auranofin at plasma molar ratios (BSO/auranofin) of 1:0.25 (top three panels), 1:0.5 (second line of panels from top), 1:1 (third line of panels from top) are simulated. The plasma concentration of auranofin is […]. The activation function adopted to simulate lymphocyte encounter with antigens is illustrated in Rong and Perelson (2009).
The following is a theoretical example for a typical situation wherein the BSO is used at a reduced concentration, with a clinically-acceptable dosage of auranofin to treat a patient with an HIV diagnosis.
Patient received an HIV diagnosis in 2008. […]
The patient is subjected to quantification of viral DNA, the result of which is 22 copies/10^6 CD4^+ T-cells. […]

[1] = BSO 500 mg/kg intraperitoneally; cisplatin 6 or 9 mg/kg; cited from earlier work
Jurkat T-cells [2] = assay: Viability of Jurkat T-cells (MTT assay, FIG. 4); type: cell-based
Procedure: FIG. 4 is a graph showing the viability of Jurkat T-cells treated with different concentrations of cisplatin, auranofin and/or buthionine sulfoximine (BSO). Viability was measured 48 hours after treatment with the drugs at the indicated concentrations with the MTT assay. Absorbance values were normalized over untreated controls and expressed as percentage. Concentrations are expressed in μM. Data are expressed as mean±SEM and were. Asterisks show the significant differences [*q<0.05; *q<0.01; q is the P value corrected for multiple comparisons by controlling the False Discovery Rate (threshold for significance=q=0.05)]. NS: non-significant. The synergistic index (SI) is expressed where significant differences exist in comparison with the single drug treatments.
(§1) In-vitro activity on activated CD4^+ T-cells and leukemia/lymphoma Methods. Resting CD4^+ T-cells, cultured T-cell leukemic Jurkat cells and Sup-T1 cells were left untreated or incubated for 24-72 hours with various concentrations of auranofin and/or buthionine sulfoximine (BSO), or chloroquine (only CD4^+ T-cells) or cisplatin (only Jurkat and Supt-T1 cells) CD4^+ T-cells were then activated by adding phytohemagglutinin (2 μg/mL). Alternatively, CD4^+ T-cells were first activated with anti-CD3/anti-CD28 beads and, after 72 hours, were left untreated or were incubated with auranofin and/or buthionine sulfoximine (BSO), or chloroquine. Cell viability was determined 24-72 hours post-activation with an MTT assay (CellTiter 96@ Non-Radioactive Cell Proliferation Assay) or MTS assay (CellTiter 960 AQueous One Solution Cell Proliferation Assay System; Promega). For the assay, 300×10^5 cells were re-suspended in 100 μL of medium and transferred to a 96-well plate. Cells were then incubated with 20 μL of a substrate solution (One Solution Reagent) for 3-4 hours in a CO2 (5%) incubator at 37° C. For the MTT assay, 100 μL of a Solubilization/Stop Solution were used to stop the reaction. Medium-only containing wells were included to serve as a blank control. Absorbance levels were recorded at 490 nm (MTS) or 570 nm (MTT) and, after subtraction of the blank, absorbance values were expressed as percentage of controls.
(§2) Results. The results from the new dosage combinations were compared to the untreated cells as well as the cells treated with single drugs or “classical” dosages, in a multiple comparison analysis. Thus, the statistical significances shown are also significant compared to the untreated cells.

SIVmac251 = conditions: auranofin 0.4 mg/kg/day and BSO 450 mg/kg in combination with ART; cited from earlier work
[3] = rats; cited from earlier work
[4] = tested on: murine mammary carcinoma cell line; conditions: auranofin/submicromolar BSO combination; cited from earlier work
Supt-1 T-cells [5] = assay: Viability of Supt-1 T-cells (MTS assay, FIGS. 2 and 6); type: cell-based
Procedure: FIG. 2 is a graph showing the viability of Supt-1 T-cells treated with different concentrations of auranofin (AU) or buthionine sulfoximine (BSO). Viability was measured 72 hours after treatment with the drugs at the indicated concentrations with the MTS assay. Absorbance values were normalized over untreated controls and expressed as percentage. BSO=buthionine sulfoximine. Concentrations are expressed in μM. Data are expressed as mean t SEM and were analysed by the Turkey posttest following One Way ANOVA. *P<0.05; **P<0.01 ***P<0.001; ****P<0.0001. NS: non-significant. The synergistic index (SI) is expressed where significant differences exist in comparison with the single drug treatments.
FIG. 6 is a graph showing the viability of Supt-1 T-cells treated with different concentrations of cisplatin or buthionine sulfoximine (BSO). Viability was measured 72 hours after treatment with the drugs at the indicated concentrations with the MTS assay. Absorbance values were normalized over untreated controls and expressed as percentage. BSO=buthionine sulfoximine. Concentrations are expressed in μM; Asterisks show the significant differences [*q<0.05; **q<0.01; q is the P value corrected for multiple comparisons by controlling the False Discovery Rate (threshold for significance=q=0.05)]. NS: non-significant. The synergistic index (SI) is expressed where significant differences exist in comparison with the single drug treatments.
as §1, §2

MKN-28 cells = conditions: BSO 5, 10 and 25 mM; cisplatin 0.1-3.0 μg/ml; cited from earlier work
MKN-45 cells = conditions: BSO 5, 10 and 25 mM; cisplatin 0.01-1 μg/ml; cited from earlier work
activated CD4^+ T-cells = assay: Viability of activated primary CD4+ T-cells (MTT assay, FIG. 1); type: cell-based
Procedure: FIG. 1 is a graph showing the viability of activated primary CD4^+ T-cells treated with different concentrations of auranofin and buthionine sulfoximine (BSO), measured with the MTT assay. The cells were pre-incubated with the drugs for 24 hours and then activated with phytohemagglutinin (PHA) and assayed for viability 72 hours post activation (A) or the cells were activated with αCD3-αCD28 beads and then treated for 48 h with different combinations of auranofin and BSO (B). In (A), the effects of chloroquine are shown as a matter of comparison with a drug adopted in the clinic to limit immune hyperactivation. All concentrations are expressed in μM. In-vitro activity on activated CD4^+ T-cells and leukemia/lymphoma Methods. Resting CD4^+ T-cells, cultured T-cell leukemic Jurkat cells and Sup-T1 cells were left untreated or incubated for 24-72 hours with various concentrations of auranofin and/or buthionine sulfoximine (BSO), or chloroquine (only CD4^+ T-cells) or cisplatin (only Jurkat and Supt-T1 cells) CD4^+ T-cells were then activated by adding phytohemagglutinin (2 μg/mL). Alternatively, CD4^+ T-cells were first activated with anti-CD3/anti-CD28 beads and, after 72 hours, were left untreated or were incubated with auranofin and/or buthionine sulfoximine (BSO), or chloroquine. Cell viability was determined 24-72 hours post-activation with an MTT assay (CellTiter 96@ Non-Radioactive Cell Proliferation Assay) or MTS assay (CellTiter 960 AQueous One Solution Cell Proliferation Assay System; Promega). For the assay, 300×10^5 cells were re-suspended in 100 μL of medium and transferred to a 96-well plate. Cells were then incubated with 20 μL of a substrate solution (One Solution Reagent) for 3-4 hours in a CO2 (5%) incubator at 37° C. For the MTT assay, 100 μL of a Solubilization/Stop Solution were used to stop the reaction. Medium-only containing wells were included to serve as a blank control. Absorbance levels were recorded at 490 nm (MTS) or 570 nm (MTT) and, after subtraction of the blank, absorbance values were expressed as percentage of controls. Results. The results from the new dosage combinations were compared to the untreated cells as well as the cells treated with single drugs or “classical” dosages, in a multiple comparison analysis. Thus, the statistical significances shown are also significant compared to the untreated cells.

[6] = 5 mmol/kg (equivalent to 111.5 mg/kg) BSO 12 hours before the chemotherapeutic agent; cited from earlier work
Supt-1 T-cells [7] = assay: Microphotographs of treated Supt-1 T-cells (FIG. 3); type: cell-based; conditions: 0.25 μM auranofin with submicromolar BSO (FIG. 3)
From the text: FIG. 3 is microphotographs of Supt-1 T-cells treated with different concentrations of auranofin or buthionine sulfoximine.

Jurkat T-cells [8] = assay: Microphotographs of treated Jurkat T-cells (FIG. 5); type: cell-based; conditions: auranofin at a clinically-acceptable concentration added to BSO and cisplatin (FIG. 5)
From the text: FIG. 5 is microphotographs of Jurkat T-cells treated with different concentrations of cisplatin, auranofin or buthionine sulfoximine (BSO).

[9] = submicromolar BSO with cisplatin 10 μM

For `CCCCS(=N)(=O)CCC(N)C(=O)O` (stereo not shown) [BSO, buthionine sulfoximine], the “cellular GSH” value (cellular GSH) is given as “Marked depletion”, the “BSO concentration required to achieve a 90% decrease in glutathione levels” value (glutathione levels) is given as 6 µM and the “viral reservoir after treatment” value (HIV) is given as < 10 copies of viral DNA/million cells. For the same compound, the “effect of BSO pre-treatment on antitumor effects of cisplatin” value [1] was “enhanced”, the “synergism of BSO and cisplatin” value (Jurkat T-cells [2]; BSO (submicromolar) with cisplatin (10 μM), 48 h (FIG. 4)) was “Significant synergism; also recorded: true synergism” and the “effect of auranofin and low concentrations of BSO on the anti-neoplastic effect of cisplatin” value (Jurkat T-cells [2]; BSO with auranofin and cisplatin (FIGS. 4 and 5)) was “increase the anti-neoplastic effect of cisplatin”. The “effect of BSO on susceptibility to cisplatin” value (Jurkat T-cells [2]; FIG. 4) was “chemosensitizing effect”, the “inhibition of cellular proliferation compared with BSO 250 μM” value (Jurkat T-cells [2]; [9]) was “no statistical difference” and the “disease outcome following suspension of all therapies” value (SIVmac251) was “functional cure”. For the same compound, the “effect on nephrotoxicity of cisplatin” value [3] was “reduce the nephrotoxicity”, the directly cytotoxic/anticancer effect [4] was “not able to detect” and the “difference between BSO only and the same BSO concentration in the presence of auranofin” value (Supt-1 T-cells [5]; BSO 250 μM) was “no significant difference”. For the same compound, the “effect on cisplatin-induced cell death” value (Supt-1 T-cells [5]; BSO 250 μM with cisplatin) was “increased cisplatin-induced cell death”, the synergistic index (Supt-1 T-cells [5]; BSO 250 μM with cisplatin (FIG. 6), effect antagonistic) was > 1.1 and the “effect of BSO only” value (Supt-1 T-cells [5]; BSO 250 μM, no auranofin) was “cytotoxic effect”. For the same compound, the “effect of BSO on susceptibility to cisplatin” value (Supt-1 T-cells [5]; FIG. 6) was “chemosensitizing effect”, the viability (Supt-1 T-cells [5]; auranofin and BSO 250 μM) was “low viability” and the “difference between combined drug treatment and the single drugs alone” value (Supt-1 T-cells [5]; submicromolar BSO with auranofin, e.g. auranofin 0.5+BSO 0.75 μM) was “extremely significant difference”. For the same compound, the “inhibition of cellular proliferation compared with BSO 250 μM” value (Supt-1 T-cells [5]; [9]) was “no statistical difference”, the “synergism of BSO and cisplatin” value (Supt-1 T-cells [5]; submicromolar BSO with cisplatin 10 μM (FIG. 6)) was “true synergism” and the anticancer effect (Supt-1 T-cells [5]; submicromolar BSO with clinically-achievable auranofin concentrations (FIGS. 2 and 3)) was “direct anticancer effect”. For the same compound, the “effect of BSO pre-treatment on antitumor activity of cisplatin” value (MKN-28 cells) was “increased the antitumor activity of cisplatin”, the “effect of BSO pre-treatment on antitumor activity of cisplatin” value (MKN-45 cells) was “increased the antitumor activity of cisplatin” and the “effect on viability compared with clinically achievable concentrations of Chloroquine” value (activated CD4^+ T-cells; BSO 2 μM with auranofin) was “superior”. For the same compound, the “limitation of cell viability compared with classically-described BSO concentration (250 μM)” value (activated CD4^+ T-cells; BSO 2 μM with auranofin) was “similar”, the “effect with auranofin in limiting the viability of activated CD4^+ T-cells” value (activated CD4^+ T-cells; BSO as low as 2 μM in combination with auranofin, pre-incubated (FIG. 1A) or treated concomitantly to activation (FIG. 1B)) was “synergistic effect” and the “effects of BSO on viability at submicromolar concentrations” value (activated CD4^+ T-cells; with auranofin, cells activated with αCD3-αCD28 beads, then treated 48 h (FIG. 1B)) was “still present”. For the same compound, the “effect on anti-cancer effects of cyclophosphamide, cisplatin or bleomycin” value [6] was “increased the anti-cancer effects”.
With `CC(=O)OC[C@H]1O[C@@H]([S-])[C@H](OC(C)=O)[C@@H](OC(C)=O)[C@@H]1OC(C)=O.CCP(CC)CC.[Au+]` [auranofin] the cell morphology (Supt-1 T-cells [7]) was “morphological alterations linked to poor lymphoblastic cell viability”, the “synergism in terms of cell viability” value (Supt-1 T-cells [5]; only with 0.5 μM auranofin, with BSO (FIG. 2)) was “significant synergism” and the cell morphology (Jurkat T-cells [8]) was “increased the aforementioned morphological alterations”.
